In US7612200B2, “Inhibitors of protein kinases” (Locus Pharmaceuticals, Inc., priority 2004, dated 2009):
pIC50: −log10 of the molar value.

How the values were obtained:
Abl1 = assay: Kinase activity at ATP Km,app, Abl1; format: biochemical, mouse; details: compound 2 μM
Experimental: Abl Kinase activity: In a final reaction volume of 25 μL, Able (m) (5-10 mU) is incubated with […] pH 7.0, 0.2 mM EDTA, 50 μM EAIYAAPFAKKK, 10 mM MgAcetate and [γ-^33P-ATP] (specific activity approx. 500 cpm/pmol, concentration as required). The reaction is initiated by the addition of the MgATP mix. After incubation for 40 minutes at room temperature, the reaction is stopped by the addition of 5 μL of a 3% phosphoric acid solution. 10 μL of the reaction is then spotted onto a P30 filtermat and washed three times for 5 minutes in 75 mM phosphoric acid and once in methanol prior to drying and scintillation counting.

EphB4 = biological target: T1, EphB4 (Homo sapiens, UniProt P54760); assay: Kinase activity at ATP Km,app, EphB4; format: biochemical; details: 40 min, compound 2 μM
T1 sequence (P54760 16-987): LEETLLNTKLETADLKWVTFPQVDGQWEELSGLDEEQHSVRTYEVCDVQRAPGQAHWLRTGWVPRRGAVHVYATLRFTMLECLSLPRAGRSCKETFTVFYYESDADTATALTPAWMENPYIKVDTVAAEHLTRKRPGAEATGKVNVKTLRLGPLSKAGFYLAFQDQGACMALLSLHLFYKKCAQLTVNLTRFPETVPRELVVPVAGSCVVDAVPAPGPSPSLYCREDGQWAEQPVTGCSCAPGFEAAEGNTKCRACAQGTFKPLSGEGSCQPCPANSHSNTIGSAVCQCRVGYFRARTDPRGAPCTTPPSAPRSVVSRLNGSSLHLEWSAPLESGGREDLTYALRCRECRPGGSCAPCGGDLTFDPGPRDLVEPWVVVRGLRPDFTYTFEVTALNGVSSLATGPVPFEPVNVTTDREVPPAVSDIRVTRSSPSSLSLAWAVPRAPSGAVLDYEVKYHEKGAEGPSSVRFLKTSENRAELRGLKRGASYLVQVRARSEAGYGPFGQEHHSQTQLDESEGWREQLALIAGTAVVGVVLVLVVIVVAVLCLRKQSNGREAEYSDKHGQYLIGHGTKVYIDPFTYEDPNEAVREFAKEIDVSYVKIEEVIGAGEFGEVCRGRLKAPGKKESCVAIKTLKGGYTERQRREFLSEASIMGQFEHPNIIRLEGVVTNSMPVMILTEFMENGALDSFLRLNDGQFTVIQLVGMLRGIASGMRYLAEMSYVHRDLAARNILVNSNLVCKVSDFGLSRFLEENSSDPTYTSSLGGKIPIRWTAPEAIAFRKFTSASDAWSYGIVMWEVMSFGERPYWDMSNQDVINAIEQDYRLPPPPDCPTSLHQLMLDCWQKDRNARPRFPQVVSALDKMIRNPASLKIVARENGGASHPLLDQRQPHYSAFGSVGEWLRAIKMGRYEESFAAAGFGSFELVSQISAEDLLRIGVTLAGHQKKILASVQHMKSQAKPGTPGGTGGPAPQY
Experimental: EphB4 Kinase Activity: In a final reaction volume of 25 μl, EphB4 (h) (5-10 mU) is incubated with 8 mM MOPS pH 7.0, 0.2 mM EDTA, 10 mM MnCl2, 0.1 mg/ml poly(Glue, Tyr) 4:1, 10 mM MgAcetate and [γ-^33P-ATP] (specific activity approx. 500 cpm/pmol, concentration as required). The reaction is initiated by the addition of the MgATP mix. After incubatin for 40 minutes at room temperature, the reaction is stopped by the addition of 5 μl of a 3% phosphoric acid solution. 10 μl of the reaction is then spotted onto a Filtermat A and washed three times for 5 minutes in 75 mM phosphoric acid and once in methanol prior to drying and scintillating counting.

LynA = LynA (Homo sapiens, UniProt P07948); assay: Kinase activity at ATP Km,app, LynA; format: biochemical; details: 40 min, compound 2 μM
LynA, sequence (P07948 whole entry): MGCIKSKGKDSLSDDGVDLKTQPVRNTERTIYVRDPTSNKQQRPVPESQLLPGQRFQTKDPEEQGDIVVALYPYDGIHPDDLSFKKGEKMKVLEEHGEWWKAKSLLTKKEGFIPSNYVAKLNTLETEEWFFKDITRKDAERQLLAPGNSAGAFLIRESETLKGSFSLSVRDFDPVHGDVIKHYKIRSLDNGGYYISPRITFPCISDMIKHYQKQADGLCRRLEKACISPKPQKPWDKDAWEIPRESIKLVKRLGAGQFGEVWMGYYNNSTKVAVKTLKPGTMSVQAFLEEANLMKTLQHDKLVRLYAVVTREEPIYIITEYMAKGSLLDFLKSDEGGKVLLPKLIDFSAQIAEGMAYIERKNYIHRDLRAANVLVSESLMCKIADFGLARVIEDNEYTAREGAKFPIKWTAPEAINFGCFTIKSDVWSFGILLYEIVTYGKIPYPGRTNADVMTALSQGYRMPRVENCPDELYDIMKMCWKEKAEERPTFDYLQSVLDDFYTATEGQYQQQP
Experimental: (§1) Lyn Kinase Activity: In a final reaction volume of 25 μl, Lyn (h) (5-10 mU) is incubated with 50 mM Tris pH 7.5, 0.1 mM EGTA, 0.1 mM Na3VO4, 0.1% β-mercaptoethanol, 0.1 mg/ml poly(Glue, Tyr) 4:1, 10 mM MgAcetate and [γ-^33P-ATP] (specific activity approx. 500 cpm/pmol, concentration as required). The reaction is initiated by the addition of the MgATP mix. After incubation for 40 minutes at room temperature, the reaction is stopped by the addition of 5 μl of a 3% phosphoric acid solution. 10 μl of the reaction is then spotted onto a Filtermat A and washed three times for 5 minutes in 75 mM phosphoric acid and once in methanol prior to drying and scintillation counting.

MAPKAP-K2 = MAPKAP-K2 (Homo sapiens, UniProt P49137); assay: Kinase activity at ATP Km,app, MAPKAP-K2; format: biochemical; details: 40 min, compound 2 μM
MAPKAP-K2, sequence (P49137 whole entry): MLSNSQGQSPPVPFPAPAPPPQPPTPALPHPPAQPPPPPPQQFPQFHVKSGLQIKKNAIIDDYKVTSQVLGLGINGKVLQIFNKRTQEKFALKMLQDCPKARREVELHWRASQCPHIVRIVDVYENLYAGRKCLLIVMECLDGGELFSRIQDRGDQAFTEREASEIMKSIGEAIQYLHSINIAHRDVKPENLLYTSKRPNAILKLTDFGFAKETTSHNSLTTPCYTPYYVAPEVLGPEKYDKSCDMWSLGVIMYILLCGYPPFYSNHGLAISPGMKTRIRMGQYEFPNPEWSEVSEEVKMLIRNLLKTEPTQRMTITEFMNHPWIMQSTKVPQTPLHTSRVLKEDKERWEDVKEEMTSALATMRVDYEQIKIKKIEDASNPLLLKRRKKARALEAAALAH
Experimental: as §1, with “MAPKAP-K2 Kinase” for “Lyn Kinase”, “μl, MAPKAP-K2” for “μl, Lyn”, “mM Na-β-glycerophosphate” for “mM Tris”, “EGTA, […]” for “EGTA, 0.1”, “[…] KKLNRTLSVA,” for “mM Na3VO4, 0.1% β-mercaptoethanol, 0.1 mg/ml poly(Glue, Tyr) 4:1,”, “a P30 filtermat” for “a Filtermat A”

MCF-7 = assay: Cell growth inhibition, MCF-7; format: cell-based; details: Homo sapiens, MCF7; MCF-7 cell line; 24 hours; viability by WST-1 or Alamar Blue
Experimental: (§2) The compounds of Examples 1 and 2 were also tested for cell growth inhibition activity a gains two cell lines, MCF-7 and U266. […], suspended in RPMI 1640 media, supplemented with 10% FBS, were pipetted into 96-well plates at a density of 10,000 cells per milliliter in a volume of […] per well. Cells were allowed to equilibrate overnight at 37 C in 5% CO2. Cells were then incubated in the presence of the test compound at a concentrations ranging from 0.03 μM to 10 μM (at ½ log dilutions) for 24 hours. After the incubation period, cells were assessed for viability using either WST-1 (Biovision) or Alamar Blue (BioSourse). Values from treated cells were compared to values from control cells and values expressed as percent control.

U266 = assay: Cell growth inhibition, U266; format: cell-based; details: Homo sapiens, U-266; U266 cell line; 24 hours; viability by WST-1 or Alamar Blue
Experimental: as §2

MuSK = MuSK (Homo sapiens, UniProt O15146); assay: Protein kinase inhibition, MuSK; format: biochemical; details: Rate (μM) 2, read-out: % Control
MuSK, sequence (O15146 24-869): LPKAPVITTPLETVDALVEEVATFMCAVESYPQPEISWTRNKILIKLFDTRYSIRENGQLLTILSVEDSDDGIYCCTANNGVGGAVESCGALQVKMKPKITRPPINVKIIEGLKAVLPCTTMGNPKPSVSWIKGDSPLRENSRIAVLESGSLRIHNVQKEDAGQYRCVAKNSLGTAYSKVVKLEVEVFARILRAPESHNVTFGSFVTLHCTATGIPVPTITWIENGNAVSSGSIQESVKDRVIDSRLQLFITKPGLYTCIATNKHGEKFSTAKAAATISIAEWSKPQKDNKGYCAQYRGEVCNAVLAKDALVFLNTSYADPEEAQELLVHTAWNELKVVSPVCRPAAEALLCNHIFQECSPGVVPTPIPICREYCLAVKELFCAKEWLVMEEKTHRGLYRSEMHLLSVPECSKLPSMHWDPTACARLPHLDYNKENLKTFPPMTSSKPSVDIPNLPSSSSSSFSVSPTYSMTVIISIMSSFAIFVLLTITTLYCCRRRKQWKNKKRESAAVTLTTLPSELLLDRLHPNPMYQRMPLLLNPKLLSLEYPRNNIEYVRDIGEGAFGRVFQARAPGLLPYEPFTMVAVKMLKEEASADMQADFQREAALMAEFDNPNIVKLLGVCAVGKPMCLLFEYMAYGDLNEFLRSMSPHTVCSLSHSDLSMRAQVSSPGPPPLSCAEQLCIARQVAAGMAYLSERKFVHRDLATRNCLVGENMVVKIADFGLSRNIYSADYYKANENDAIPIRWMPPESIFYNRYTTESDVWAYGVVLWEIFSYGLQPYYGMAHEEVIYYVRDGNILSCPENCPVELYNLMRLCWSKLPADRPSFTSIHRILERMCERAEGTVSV

Ros = Ros (Homo sapiens, UniProt P08922); assay: Protein kinase inhibition, Ros; format: biochemical; details: Rate (μM) 2, read-out: % Control
Ros, sequence (P08922 28-2347): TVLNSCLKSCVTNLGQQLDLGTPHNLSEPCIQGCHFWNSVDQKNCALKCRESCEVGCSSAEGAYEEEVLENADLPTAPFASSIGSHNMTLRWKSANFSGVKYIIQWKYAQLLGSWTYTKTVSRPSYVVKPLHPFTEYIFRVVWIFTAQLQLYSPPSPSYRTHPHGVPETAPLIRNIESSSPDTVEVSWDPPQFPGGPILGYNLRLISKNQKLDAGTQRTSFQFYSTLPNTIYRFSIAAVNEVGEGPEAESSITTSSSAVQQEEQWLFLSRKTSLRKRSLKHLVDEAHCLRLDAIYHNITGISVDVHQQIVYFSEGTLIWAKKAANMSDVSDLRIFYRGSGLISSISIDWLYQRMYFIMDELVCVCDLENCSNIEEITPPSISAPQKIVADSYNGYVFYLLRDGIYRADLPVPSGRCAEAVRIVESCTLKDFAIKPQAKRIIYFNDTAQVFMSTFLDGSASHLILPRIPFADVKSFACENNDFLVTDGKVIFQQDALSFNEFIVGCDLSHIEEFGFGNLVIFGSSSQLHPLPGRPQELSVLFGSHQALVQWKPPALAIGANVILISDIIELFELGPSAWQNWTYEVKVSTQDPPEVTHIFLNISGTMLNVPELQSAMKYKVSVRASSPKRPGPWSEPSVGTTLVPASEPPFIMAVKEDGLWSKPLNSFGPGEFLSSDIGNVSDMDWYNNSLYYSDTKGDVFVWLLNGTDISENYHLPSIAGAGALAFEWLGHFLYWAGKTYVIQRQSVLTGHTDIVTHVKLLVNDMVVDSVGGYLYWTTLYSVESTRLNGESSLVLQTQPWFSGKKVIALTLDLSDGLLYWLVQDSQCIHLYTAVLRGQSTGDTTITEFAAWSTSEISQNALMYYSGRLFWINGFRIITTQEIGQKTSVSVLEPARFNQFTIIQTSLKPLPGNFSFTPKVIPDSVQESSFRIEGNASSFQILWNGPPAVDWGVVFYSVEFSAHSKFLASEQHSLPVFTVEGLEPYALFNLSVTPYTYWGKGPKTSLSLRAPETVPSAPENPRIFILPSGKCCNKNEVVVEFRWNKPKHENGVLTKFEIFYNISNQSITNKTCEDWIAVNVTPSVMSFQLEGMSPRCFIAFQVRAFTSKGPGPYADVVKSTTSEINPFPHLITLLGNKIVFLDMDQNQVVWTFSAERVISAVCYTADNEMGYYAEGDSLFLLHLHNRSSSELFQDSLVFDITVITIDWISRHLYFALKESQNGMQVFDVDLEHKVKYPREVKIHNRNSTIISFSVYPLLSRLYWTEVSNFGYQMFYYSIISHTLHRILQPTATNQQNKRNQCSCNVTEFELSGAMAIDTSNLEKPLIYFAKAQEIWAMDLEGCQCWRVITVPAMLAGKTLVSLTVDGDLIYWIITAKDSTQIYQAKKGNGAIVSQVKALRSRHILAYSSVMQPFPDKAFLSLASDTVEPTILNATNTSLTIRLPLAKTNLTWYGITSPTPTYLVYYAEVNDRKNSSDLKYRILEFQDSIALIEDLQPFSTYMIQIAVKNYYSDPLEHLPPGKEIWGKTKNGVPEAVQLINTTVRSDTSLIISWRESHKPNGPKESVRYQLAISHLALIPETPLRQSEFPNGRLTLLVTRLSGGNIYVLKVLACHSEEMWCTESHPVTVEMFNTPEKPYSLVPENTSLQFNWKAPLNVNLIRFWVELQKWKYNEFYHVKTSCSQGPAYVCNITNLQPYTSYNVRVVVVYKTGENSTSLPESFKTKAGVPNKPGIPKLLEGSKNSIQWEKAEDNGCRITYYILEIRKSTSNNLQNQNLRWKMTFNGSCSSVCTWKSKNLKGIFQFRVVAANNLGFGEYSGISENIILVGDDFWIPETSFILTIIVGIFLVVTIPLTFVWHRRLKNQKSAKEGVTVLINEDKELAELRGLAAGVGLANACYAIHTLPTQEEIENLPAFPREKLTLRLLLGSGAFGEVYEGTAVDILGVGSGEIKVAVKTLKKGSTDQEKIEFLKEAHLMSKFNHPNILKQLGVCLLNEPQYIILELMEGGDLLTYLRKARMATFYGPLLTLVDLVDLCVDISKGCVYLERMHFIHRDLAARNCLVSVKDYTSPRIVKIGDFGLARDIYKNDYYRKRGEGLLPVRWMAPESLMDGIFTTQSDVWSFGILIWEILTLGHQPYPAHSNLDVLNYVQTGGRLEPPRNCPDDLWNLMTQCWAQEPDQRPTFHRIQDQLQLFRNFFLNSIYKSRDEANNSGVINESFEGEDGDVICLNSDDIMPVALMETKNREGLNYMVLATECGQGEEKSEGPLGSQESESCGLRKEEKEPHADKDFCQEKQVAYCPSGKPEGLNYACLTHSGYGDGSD

SMILES	% Inhibition at ATP Km,app (Abl1)	inhibition at 2 µM (EphB4)	inhibition at 2 µM (LynA)	inhibition at 2 µM (MAPKAP-K2)	pIC50 (MCF-7)	pIC50 (U266)	remaining activity at 2 µM (MuSK)	remaining activity at 2 µM (Ros)
CC(C)(C)c1cc(C(=O)N2CCNS(=O)(=O)CC2)c(NC(=O)Nc2ccc(Oc3ccncc3)cc2)s1 [Example 1, 1-(5-tert-Butyl-3-(1,1-dioxo-1λ^6-[1,2,5]thiadiazepane-5-carbonyl)thiophen-2-yl)-3-(4-(pyridin-4-yloxy)phenyl)urea]	0-25%	76 to 100%	26 to 50%	0 to 25%	> 5.00	> 5.00		
CC(C)(C)c1cc(C(=O)N2CCNC(=O)C2)c(NC(=O)Nc2ccc(Oc3ccncc3)cc2)s1 [Example 2, 1-(5-tert-Butyl-3-(3-oxo-piperazine-1-carbonyl)thiophen-2-yl)-3-(4-(pyridin-4-yloxy)phenyl)urea]	0-25%	76 to 100%	26 to 50%	0 to 25%	> 5.00	> 5.00		
CC(C)(C)c1cc(C(=O)N2CCS(=O)(=O)CC2)c(NC(=O)Nc2ccc(Oc3ccncc3)cc2)s1 [Example 3, 1-[5-tert-Butyl-3-(1,1-dioxo-1λ^6-thiomorpholine-4-carbonyl)thiophen-2-yl]-3-[4-(pyridin-4-yloxy)phenyl]urea]							76 to 100%	76 to 100%
CC(C)(C)c1cc(C(=O)N2CCNC(=O)CC2)c(NC(=O)Nc2ccc(Oc3ccncc3)cc2)s1 [Example 4, 1-(5-tert-Butyl-3-(5-oxo-[1,4]diazepane-1-carbonyl)thiophen-2-yl)-3-(4-(pyridin-4-yloxy)phenyl)urea]	0-25%	76 to 100%	51 to 76%	0 to 25%				
